In patent US6025343A, “Lipid esters of nucleoside monophosphates and their use as immunosuppressive drugs” (Roche Diagnostics GmbH, priority 1994, dated 2000):
Read-outs that look alike come from different tables or passages of the source.

Key:
[1] = test system: murine bone marrow stern cells, colony-forming units/erythrocytes (CFU-E); experiment: CFU-E assay, in vitro cytotoxicity / bone marrow toxicity; assay type: cell-based; conditions: for IC50: Mus musculus, Erythrocyte
Experimental: (§1) The cytostatic/cytotoxic compound Doxorubicin was also included as reference substance. All compounds were tested in 3-6 different experiments concentration dependently with,at least, doublicate or triplicate inclubations per concentration tested.
(§2) For assay conditions, please refer to description of Example 7.

[2] = test system: murine bone marrow stern cells, colony-forming units/granulocytes-macrophages (CFU-GM); experiment: CFU-GM assay, in vitro cytotoxicity / bone marrow toxicity; assay type: cell-based; conditions: for IC50: Mus musculus, in vitro
Experimental: as §1, §2

L 1210 leukemia = experiment: Influence on the L 1210 leukemia in vivo: survival time; set-up: species or system mice
Experimental: Mice were inoculated with L 1210 leukemia cells on day 0 (n=10 animals/group) and w ere then treated once daily i.p. from day 0 (+1 h)-day +41 (6 weeks) with the weekly cycles indicated on FIGS. 1 and 2, respectively.

[3] = in vitro, mean ± SEM, Example 7, read-out: IC50 CFU-E
[4] = CFU-GM, mean ± SEM, Example 7, read-out: IC50 CFU-GM
[5] = in vitro, mean, Example 10, read-out: Bone marrow toxicity CFU-E, mean IC50
[6] = CFU-GM, mean, Example 10, read-out: Bone marrow toxicity CFU-GM, mean IC50
[7] = 5-FU-DMDOPE compared to 5-FU, table

For `Sc1ncnc2nc[nH]c12` [6-Mercaptopurine, reference compound], the IC50 [1, 3] was 0.3 ng/mL and the IC50 [2, 4] was 2.3 ng/mL.

`OC[C@H]1O[C@@H](n2cnc3c(S)ncnc32)[C@H](O)[C@@H]1O` [6-Mercaptopurinriboside, reference compound] showed an IC50 [1, 3] of 0.3 ng/mL and an IC50 [2, 4] of 2.3 ng/mL.

In the case of `COc1cccc2c1C(=O)c1c(O)c3c(c(O)c1C2=O)C[C@@](O)(C(=O)CO)C[C@@H]3O[C@H]1C[C@H](N)[C@H](O)[C@H](C)O1` [Doxorubicin, reference compound], the IC50 [1, 3] is reported as 1.7 ng/mL and the IC50 [2, 4] is reported as 50 ng/mL.

In the case of `O=c1[nH]c(=O)n([C@@H]2O[C@H](CO)[C@@H](O)[C@H]2O)cc1F` [Example 5-FU, 5-Fluorouridine, reference compound], the dose-efficacy profile (L 1210 leukemia; i.p. once daily, weekly cycles, day 0 (+1 h)-day +41, FIG. 2) is reported as “very narrow dose-efficacy profile”, the “survival rates on increasing the dose” value (L 1210 leukemia; i.p., from 2×10/5×0.1 to 2×10/5×0.3 mg kg^-1 day^-1 or even higher doses, FIG. 2) is reported as “reduced survival rates” and the IC50 [1, 5] is reported as 0.61 nM. The IC50 [2, 6] was 4.96 nM.

`CCCCCCCCCCCCSCC(COP(=O)(O)OC[C@H]1O[C@@H](n2cc(F)c(=O)[nH]c2=O)[C@H](O)[C@@H]1O)OCCCCCCCCCC` (some centres unmarked) [Example 5-FU-DMDOPE, (5-Fluorouridine) -5'-phosphoric acid (3-dodecylmercapto 2 decyloxy) propyl ester] was tested, and the “therapeutic index/ratio compared to 5-FU” value (L 1210 leukemia; concluded from efficacy (FIGS. 1 and 2) and bone marrow toxicity) was “much higher therapeutic index/ratio”, the “survival time compared to control I and II” value (L 1210 leukemia; i.p. once daily, weekly cycles, day 0 (+1 h)-day +41, FIG. 1) was “clear dose-dependent increase in survival time” and the “efficacy compared to 5-FU” value (L 1210 leukemia; leukemia model, equimolar doses, FIGS. 1 and 2) was “clearly more effective”. For the same molecule, the “Bone marrow toxicity CFU-E, ratio to 5-FU” value [1, 7] was 610 ×, the “less toxic on erythrocyte bone marrow stem cells compared to 5-FU” value ([1]; CFU-E) was 610 times and the IC50 [1, 5] was 372 nM. For the same molecule, the “toxicity on bone marrow cells compared to 5-FU” value ([1]; in words, CFU-E and CFU-GM) was “much less toxic on bone marrow cells”, the “Bone marrow toxicity CFU-GM, ratio to 5-FU” value [2, 7] was 238 × and the “less toxic on granulocyte/macrophage bone marrow stem cells compared to 5-FU” value ([2]; CFU-GM) was 238 times. The IC50 [2, 6] was 1180 nM.

With `CCCCCCCCCCCCSCC(COP(=O)(O)OC[C@H]1O[C@@H](n2cnc3c(S)ncnc32)[C@H](O)[C@@H]1O)OCCCCCCCCCC` (stereo partly drawn) [Example 6-MPR-DMDOPE, (6-Mercaptopurine-9-β-D-ribofuranoside)-5'-phosphoric acid (3-dodecylmercapto-2-decyloxy) propyl ester] the IC50 [1, 3] was 56 ng/mL, the “tolerability by bone marrow stem cells” value ([1]; in vitro, CFU-E and CFU-GM, compared to Azathioprine, 6-MP, 6-Mercaptopurinriboside, Doxorubicin) was “much better tolerated by the bone marrow stern cells compared to all other compounds tested” and the IC50 [2, 4] was 247 ng/mL.
